Results on ten compounds are retold here after ChEMBL document CHEMBL1201862, “PubChem BioAssay data set” (2004).

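Where inhibition never reached the appropriate level, the endpoint shown equals the highest concentration tested. Otherwise, values were interpolated linearly from a five-concentration, 48-hour dose response in 96-well plates. GI50: concentration for 50% inhibition of growth.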 The source made the active and inactive calls. No stated cut-off is given here; in the data, active = GI50 up to about 1.1 µM and inactive = higher.

Some test systems named below: K562; OVCAR-3; SN12C; A549; UO-31; OVCAR-4; A498; MCF7; HL-60; SK-MEL-2; Malme-3M; 786-0; NCI-H226; NCI/ADR-RES; NCI-H23; CCRF-CEM; BT-549; RXF 393; MDA-MB-231; SK-MEL-5.
Test in all cases: DTP human tumour cell line panel, 48 h

Turning to `C=C(CCOC)CCC1CCCCC(=C)C1=O` (stereo not given), the GI50 with K562, in the assay with OVCAR-3, in the assay on SN12C, in the assay on A549, in the assay with UO-31 and in the assay on OVCAR-4 was > 100 µM (inactive) each time. Also, the GI50 in the assay with A498, in the assay on MCF7, with HL-60, in the assay on SK-MEL-2, in the assay with Malme-3M and with 786-0 was > 100 µM (inactive) throughout. The GI50 in the assay on NCI-H226, in the assay on NCI/ADR-RES, in the assay on NCI-H23, in the assay with CCRF-CEM, in the assay on BT-549 and in the assay on RXF 393 was > 100 µM (inactive) throughout. Also, the GI50 with MDA-MB-231 and in the assay with SK-MEL-5 was > 100 µM (inactive) throughout.
With `CN1CN(c2ccccc2)C2(CCN(C(=O)OC(C)(C)C)CC2)C1=O`, the GI50 is 75.3 µM (inactive) in the assay with K562; > 100 µM (inactive) in the assay with OVCAR-3; > 100 µM (inactive) in the assay on SN12C; > 100 µM (inactive) in the assay on A549; > 100 µM (inactive) with UO-31; > 100 µM (inactive) in the assay with OVCAR-4. Moreover, the GI50 with A498, in the assay on MCF7, with HL-60, in the assay on SK-MEL-2, in the assay on Malme-3M and with 786-0 was > 100 µM (inactive) each time. In addition, the GI50 in the assay on NCI-H226 is > 100 µM (inactive); in the assay with NCI/ADR-RES, > 100 µM (inactive); with NCI-H23, > 100 µM (inactive); in the assay on CCRF-CEM, > 100 µM (inactive); in the assay on BT-549, > 100 µM (inactive); in the assay on RXF 393 it was 63.2 µM (inactive). Moreover, the GI50 with MDA-MB-231 and with SK-MEL-5 was > 100 µM (inactive) throughout.
For the compound `O=C1CC(n2cccc2)c2c(Br)sc(Br)c21` (stereo not given), the GI50 with K562 is 14.5 µM (inactive); in the assay with OVCAR-3 it was 15.8 µM (inactive); with SN12C, 17.3 µM (inactive); in the assay with A549, 21 µM (inactive); with UO-31 it was 2.56 µM (inactive); in the assay on OVCAR-4 it was 16.7 µM (inactive). For the same compound, the GI50 in the assay on A498 is 24.9 µM (inactive); with MCF7, 12 µM (inactive); in the assay on HL-60, 15.1 µM (inactive); in the assay on SK-MEL-2 it was 14.5 µM (inactive); in the assay on Malme-3M, 18.5 µM (inactive); in the assay with 786-0 it was 18.3 µM (inactive). In addition, the GI50 with NCI-H226 is 18.8 µM (inactive); with NCI/ADR-RES, 26.1 µM (inactive); with NCI-H23, 13.6 µM (inactive); with CCRF-CEM, 6.35 µM (inactive); in the assay with BT-549, 18.6 µM (inactive); in the assay on RXF 393, 20.6 µM (inactive). Further, the GI50 in the assay on MDA-MB-231 was 15.7 µM (inactive); with SK-MEL-5, 16 µM (inactive).
On to `COc1ccc(/C=C2\CCC(CN(C)C)C2=O)cc1` (stereo not given), for which the GI50 was 1.6 µM (inactive) with K562; 4.12 µM (inactive) with OVCAR-3; 5.83 µM (inactive) in the assay with SN12C; 12.2 µM (inactive) in the assay with A549; 8.59 µM (inactive) in the assay on UO-31; 8.34 µM (inactive) with OVCAR-4. In addition, the GI50 is 15 µM (inactive) in the assay on A498; 1.95 µM (inactive) with MCF7; 1.02 µM (active) in the assay with HL-60; 7.87 µM (inactive) in the assay with SK-MEL-2; 4.92 µM (inactive) with Malme-3M; 1.65 µM (inactive) in the assay with 786-0. The GI50 with NCI-H226 is 16.3 µM (inactive); in the assay on NCI/ADR-RES it was 2.36 µM (inactive); in the assay with NCI-H23, 7.91 µM (inactive); in the assay with CCRF-CEM it was 2.26 µM (inactive); in the assay with BT-549, 3.26 µM (inactive); in the assay with RXF 393, 2.94 µM (inactive). Also, the GI50 in the assay with MDA-MB-231 was 1.99 µM (inactive); in the assay on SK-MEL-5, 8.69 µM (inactive).
With `N#Cc1c(-c2ccc(Cl)cc2)c(-c2ccc(Cl)cc2)nn(CCOC(=O)CCC(=O)O)c1=O`, the 50% growth inhibitory concentration (GI50) was 0.344 µM (active) in the assay with K562; 0.361 µM (active) with OVCAR-3; 0.851 µM (active) with SN12C; 1.31 µM (inactive) in the assay with A549; 1.11 µM (active) with UO-31; 1.45 µM (inactive) in the assay with OVCAR-4. The GI50 with A498 was 0.652 µM (active); in the assay with MCF7 it was 0.165 µM (active); in the assay with HL-60 it was 0.339 µM (active); in the assay on SK-MEL-2, 0.221 µM (active); in the assay on Malme-3M, 1.02 µM (active); in the assay on 786-0 it was 0.755 µM (active). The GI50 in the assay with NCI-H226 was 0.258 µM (active); in the assay on NCI/ADR-RES it was 1.32 µM (inactive); in the assay on NCI-H23, 2.16 µM (inactive); in the assay on CCRF-CEM, 0.48 µM (active); in the assay on BT-549 it was 11.9 µM (inactive); in the assay on RXF 393 it was 0.327 µM (active). In addition, the results for the GI50 with MDA-MB-231 and in the assay on SK-MEL-5 were 2.65 µM (inactive) and 0.166 µM (active), respectively.
Regarding `CC(C)COC(=O)OC(=O)c1ccc(N(C)Cc2cnc3nc(N)nc(N)c3n2)cc1`, the GI50 is 0.466 µM (active) with K562; > 100 µM (inactive) in the assay on OVCAR-3; > 100 µM (inactive) in the assay with SN12C; 5.61 µM (inactive) with A549; > 51.3 µM (inactive) in the assay on UO-31; > 100 µM (inactive) with OVCAR-4. Also, the GI50 was > 40.4 µM (inactive) in the assay on A498; 6.35 µM (inactive) in the assay with MCF7; 8.34 µM (inactive) in the assay on HL-60; > 100 µM (inactive) in the assay with SK-MEL-2; 36.1 µM (inactive) in the assay with Malme-3M; 5.37 µM (inactive) in the assay on 786-0. The GI50 is > 100 µM (inactive) with NCI-H226; > 36.3 µM (inactive) in the assay with NCI/ADR-RES; 11 µM (inactive) in the assay on NCI-H23; 3.69 µM (inactive) with CCRF-CEM; 20.9 µM (inactive) in the assay with BT-549; 16.1 µM (inactive) in the assay on RXF 393. Moreover, the figures for the GI50 with MDA-MB-231 and with SK-MEL-5 were > 100 µM (inactive) and 5.22 µM (inactive), respectively.
`NC1c2c(Cl)sc(Cl)c2C(=O)C1O` (stereo not given): the GI50 in the assay with K562 was 29.4 µM (inactive); in the assay on OVCAR-3 it was 30.8 µM (inactive); in the assay on SN12C, 15.8 µM (inactive); in the assay on A549, > 100 µM (inactive); in the assay with UO-31 it was 31.9 µM (inactive); with OVCAR-4 it was 17.2 µM (inactive). The GI50 was > 100 µM (inactive) with A498; 18.9 µM (inactive) with MCF7; 15.4 µM (inactive) in the assay with HL-60; 73.8 µM (inactive) in the assay on SK-MEL-2; 37.9 µM (inactive) with Malme-3M; 94.6 µM (inactive) in the assay with 786-0. Further, the GI50 in the assay with NCI-H226 was > 100 µM (inactive); in the assay with NCI/ADR-RES, 36.9 µM (inactive); in the assay on NCI-H23, 15.6 µM (inactive); in the assay with CCRF-CEM it was 19 µM (inactive); in the assay with BT-549 it was 15.6 µM (inactive); in the assay on RXF 393, 12.8 µM (inactive). In addition, the GI50 with MDA-MB-231 is 37.8 µM (inactive); in the assay with SK-MEL-5, 26.9 µM (inactive).
Turning to `CN1CSC(=S)N(c2c3ccccc3nc3ccc(Br)cc23)C1`, the GI50 in the assay on K562 was 2.32 µM (inactive); with OVCAR-3, 16.7 µM (inactive); in the assay with SN12C it was 5.31 µM (inactive); in the assay on A549 it was 6.22 µM (inactive); in the assay on UO-31 it was 9.06 µM (inactive); in the assay on OVCAR-4, 7.11 µM (inactive). For the same compound, the GI50 is 13.6 µM (inactive) with A498; 5.83 µM (inactive) in the assay on MCF7; 11.1 µM (inactive) in the assay with HL-60; 13 µM (inactive) in the assay with SK-MEL-2; 16.7 µM (inactive) in the assay with Malme-3M; 4.7 µM (inactive) in the assay on 786-0. Further, the GI50 in the assay on NCI-H226 was 10 µM (inactive); in the assay on NCI/ADR-RES it was 7.67 µM (inactive); in the assay on NCI-H23 it was 10 µM (inactive); in the assay with CCRF-CEM, 4.08 µM (inactive); in the assay with BT-549, 15.4 µM (inactive); in the assay with RXF 393, 11.9 µM (inactive). For the same compound, the GI50 is 8.45 µM (inactive) in the assay with MDA-MB-231 and 12.4 µM (inactive) in the assay with SK-MEL-5.
With `NC(=S)Nc1ccc2c(c1)oc1ccccc12`, the GI50 with K562 was > 100 µM (inactive); in the assay on OVCAR-3, > 100 µM (inactive); with SN12C, > 100 µM (inactive); in the assay with A549, > 100 µM (inactive); with UO-31, > 28.4 µM (inactive); in the assay on OVCAR-4, > 100 µM (inactive). For the same compound, the GI50 is > 100 µM (inactive) in the assay with A498; 8.73 µM (inactive) in the assay on MCF7; 7.82 µM (inactive) in the assay on HL-60; > 100 µM (inactive) in the assay with SK-MEL-2; 8.11 µM (inactive) in the assay on Malme-3M; > 100 µM (inactive) with 786-0. For the same compound, the GI50 in the assay with NCI-H226 was 39 µM (inactive); in the assay with NCI/ADR-RES, > 100 µM (inactive); with NCI-H23 it was > 83.6 µM (inactive); in the assay with CCRF-CEM it was 9.91 µM (inactive); in the assay with BT-549, > 100 µM (inactive); with RXF 393, > 100 µM (inactive). The GI50 in the assay on MDA-MB-231 is > 100 µM (inactive); in the assay on SK-MEL-5, 18.9 µM (inactive).
For the compound `COC1=C(OC)C(=O)c2cc(C)c(=O)c(C)cc2C1=O`, the GI50 was 3.19 µM (inactive) in the assay with K562; 10.4 µM (inactive) with OVCAR-3; 2.81 µM (inactive) in the assay on SN12C; 20.2 µM (inactive) in the assay on A549; 13.8 µM (inactive) in the assay on UO-31; 2.83 µM (inactive) in the assay with OVCAR-4. Further, the GI50 with A498 is 24.2 µM (inactive); with MCF7 it was 17.9 µM (inactive); in the assay with HL-60 it was 2.82 µM (inactive); in the assay on SK-MEL-2, 17.3 µM (inactive); in the assay on Malme-3M it was 17.1 µM (inactive); with 786-0, 11.9 µM (inactive). Besides, the GI50 was 18.6 µM (inactive) in the assay with NCI-H226; 17 µM (inactive) in the assay with NCI/ADR-RES; 16.9 µM (inactive) in the assay with NCI-H23; 2.45 µM (inactive) in the assay on CCRF-CEM; 15.2 µM (inactive) with BT-549; 15.3 µM (inactive) in the assay on RXF 393. The GI50 in the assay on MDA-MB-231 is 7.94 µM (inactive); in the assay on SK-MEL-5 it was 15.8 µM (inactive).

By GI50 is commonly meant the concentration at which growth is held to half of that of the control.
